Results from patent US5591726A, “Heterocyclylalkyl diarylboron ester and thioester fungicidal agents” (American Cyanamid Company, priority 1994, dated 1997).

How the values were obtained:
[1] = system: Pseudocercosporella herpotrichoides; assay: In vitro fungicidal evaluation, PSDCHE; assay type: cell-based; details: 25 ppm; 3-7 days at 21° C. Note: ranges in brackets are in %.
Experimental: (§1) Test compounds are dissolved or suspended in acetone and dispersed into cell well plates containing a suspension of ground fungal mycelia/spores in a nutrient broth. Assay plates are incubated for 3-7 days at 21° C. Growth inhibition is measured visually and is rated using the following scale:
(§2) Untreated controls, solvent blanks and reference standards are included in each test.
(§3) Assay fungi include the plant pathogens, Pythium ultimum (PYTHUL); Rhizoctonia solani (RHIZSO); Fusarium oxysporum f. sp. cucumerinum (FUSOXC); and Pseudocercosporella herpotrichoides (PSDCHE).
(§4) When more than one test is run, the data are averaged. The compounds evaluated are reported by compound number given in Example 3.

[2] = system: Erysiphe graminis f. sp. tritici; assay: In vivo fungicidal evaluation, Wheat Powdery Mildew (WPM); details: 200 ppm foliar spray; note: ranges in brackets are in %
Experimental: (§5) Test compounds are dissolved or suspended in acetone and diluted with deionized water containing about 0.05% TWEEN®20, a polyoxyethylene sorbitan monolaurate surfactant manufactured by Atlas Chemical Industries, to give a concentration of 200 ppm. Host plants are sprayed with the test solution, dried and inoculated with fungi. When disease symptom development is optimal, the plants are rated for disease control according to the rating scale shown below. Each test contains inoculated treated plants, inoculated untreated plants and a reference standard. When more than one test is run, the data are averaged. The data obtained are shown in Table I. |WPM Wheat Powdery Mildew | Erysiphe graminis | f. sp. tritici

Cercospora beticola = assay: In vivo fungicidal evaluation, Sugar Beet Cercospora (SBC); details: 200 ppm foliar spray; note: ranges in brackets are in %
Experimental: as §5, with “|SBC Sugar Beet Cercospora” for “|WPM Wheat Powdery Mildew”, “Cercospora beticola” for “Erysiphe graminis | f. sp. tritici”

Pythium ultimum = assay: In vitro fungicidal evaluation, PYTHUL; assay type: cell-based; details: 25 ppm; 3-7 days at 21° C. Note: ranges in brackets are in %.
Experimental: as §1, §2, §3, §4

Plasmopara viticola = assay: In vivo fungicidal evaluation, Grape Downy Mildew (GDM); details: 200 ppm foliar spray; note: ranges in brackets are in %
Experimental: as §5, with “|GDM Grape Downy” for “|WPM Wheat Powdery”, “Plasmopara viticola” for “Erysiphe graminis | f. sp. tritici”

[3] = system: Cladosporium cucumerinum (fenarimol-resistant and -sensitive strains); assay type: cell-based; details: EC50 resistant strain / EC50 sensitive strain, 50 to 54 hours
Rhizoctonia solani = assay: In vitro fungicidal evaluation, RHIZSO; assay type: cell-based; details: 25 ppm; 3-7 days at 21° C. Note: ranges in brackets are in %.
Experimental: as §1, §2, §3, §4

Pyricularia grisea = assay type: in vivo; details: Rice Blast; 200 ppm foliar spray
Alternaria solani = assay: In vivo fungicidal evaluation, Tomato Early Blight (TEB); details: 200 ppm foliar spray; note: ranges in brackets are in %
Experimental: as §5, with “|TEB Tomato Early Blight” for “|WPM Wheat Powdery Mildew”, “Alternaria solani” for “Erysiphe graminis | f. sp. tritici”

[4] = system: Septoria nodorum (propiconazole-resistant and -sensitive strains); assay type: cell-based; details: EC50 resistant strain / EC50 sensitive strain, 50 to 54 hours
[5] = system: Fusarium oxysporum f. sp. cucumerinum; assay: In vitro fungicidal evaluation, FUSOXC; assay type: cell-based; details: 25 ppm; 3-7 days at 21° C. Note: ranges in brackets are in %.
Experimental: as §1, §2, §3, §4

Botrytis cinerea = assay: In vivo fungicidal evaluation, Pepper Botrytis (PB); details: 200 ppm foliar spray; note: ranges in brackets are in %
Experimental: as §5, with “|PB Pepper Botrytis Botrytis cinerea” for “|WPM Wheat Powdery Mildew | Erysiphe graminis | f. sp. tritici”

Septoria nodorum = assay: In vivo fungicidal evaluation, Wheat Septoria Nodorum (WSN); details: 200 ppm foliar spray
Experimental: Test compounds are dissolved or suspended in acetone and diluted with deionized water containing about 0.05% TWEEN®20, a polyoxyethylene sorbitan monolaurate surfactant manufactured by Atlas Chemical Industries, to give a concentration of 200 ppm.
Host plants are sprayed with the test solution, dried and inoculated with fungi. When disease symptom development is optimal, the plants are rated for disease control according to the rating scale shown below. Each test contains inoculated treated plants, inoculated untreated plants and a reference standard. When more than one test is run, the data are averaged.
WSN Wheat Septoria Nodorum

Venturia inaequalis = assay: In vivo fungicidal evaluation, Apple Scab (AS); details: 200 ppm foliar spray; note: ranges in brackets are in %
Experimental: as §5, with “|AS Apple Scab Venturia inaequalis” for “|WPM Wheat Powdery Mildew | Erysiphe graminis | f. sp. tritici”

[6] = system: Ustilago avenae (triadimefon-resistant and -sensitive strains); assay type: cell-based; details: EC50 resistant strain / EC50 sensitive strain, 50 to 54 hours

SMILES	Growth inhibition rating, PSDCHE [1]	Disease control rating, WPM [2]	Disease control rating, SBC (Cercospora beticola)	Growth inhibition rating, PYTHUL (Pythium ultimum)	Disease control rating, GDM (Plasmopara viticola)	Resistance Factor, Cladosporium cucumerinum [3]	Growth inhibition rating, RHIZSO (Rhizoctonia solani)	Disease control rating, RB (Pyricularia grisea)	Disease control rating, TEB (Alternaria solani)	Resistance Factor, Septoria nodorum [4]	Growth inhibition rating, FUSOXC [5]	Disease control rating, PB (Botrytis cinerea)	Disease control rating, WSN (Septoria nodorum)	Disease control rating, AS (Venturia inaequalis)	Resistance Factor, Ustilago avenae [6]
CC(C)(C)C(CCc1ccc(Cl)cc1)(Cn1cncn1)OB(c1ccc(F)cc1)c1ccc(F)cc1 (centres unmarked) [Compound 4, 1-Tert-butyl-3-(p-chlorophenyl)-1-(1H-1,2,4-triazol-1-ylmethyl)propyl bis(p-fluorophenyl)borinate]	0 (0)	8 (96-99)	6 (75-89)	9 (100)	8 (96-99)	1.3	9 (100)	6 (75-89)	6 (75-89)	1.9	9 (100)	7 (90-95)	2 (15-29)	7 (90-95)	2.3
OC(c1ccc(Cl)cc1)(c1cncnc1)c1ccccc1Cl (centres unmarked) [Fenarimol, reference compound]										9.6					9.9
Fc1ccc(B(OC(c2ccc(Cl)cc2)(c2cncnc2)c2ccccc2Cl)c2ccc(F)cc2)cc1 (centres unmarked) [Compound 5, (o-Chlorophenyl)(p-chlorophenyl)(5-pyrimidinyl)methyl bis(p-fluorophenyl)borinate]	0 (0)	8 (96-99)	7 (90-95)	1 (1-29)	0 (0)		7 (90-99)	0 (0)	3 (30-44)		0 (0)	0 (0)	7 (90-95)	7 (90-95)	
Clc1ccc(COC(Cn2ccnc2)c2ccc(Cl)cc2Cl)c(Cl)c1 (centres unmarked) [Miconazole nitrate, reference compound]						2.4				2.5					4.1
Clc1ccc(COC(Cn2ccnc2)c2ccc(Cl)cc2Cl)cc1 (centres unmarked) [Econazole nitrate, reference compound]						2.0				1.8					2.0
Clc1ccc(C(Cn2ccnc2)OB(c2ccccc2)c2ccccc2)c(Cl)c1 (centres unmarked) [Compound 6, 1-(2,4-Dichlorophenyl)-2-(imidazol-1-yl)ethyl diphenylborinate]	0 (0)	8 (96-99)	5 (60-74)	7 (90-99)	0 (0)	1.1	9 (100)	0 (0)	0 (0)	1.0	9 (100)	0 (0)	0 (0)	3 (30-44)	1.6
Fc1ccc(B(OC(Cn2ccnc2)c2ccc(Cl)cc2Cl)c2ccc(F)cc2)cc1 (centres unmarked) [Compound 1, 1-(2,4-Dichlorophenyl)-2-(imidazol-1-yl)ethyl bis(p-fluorophenyl)borinate]	0 (0)	8 (96-99)	6 (75-89)	5 (60-89)	0 (0)	1.5	7 (90-99)	8 (96-99)	4 (45-59)	1.2	5 (60-89)	0 (0)	0 (0)	0 (0)	2.6
CC(C)(C)C(CCc1ccc(Cl)cc1)(Cn1cncn1)OB(c1ccccc1)c1ccccc1 (centres unmarked) [Compound 3, 1-Tert-butyl-3-(p-chlorophenyl)-1-(1H-1,2,4-triazol-1-ylmethyl)propyl diphenylborinate]	0 (0)	8 (96-99)	6 (75-89)	9 (100)	9 (100)	1.7	9 (100)	6 (75-89)	6 (75-89)	1.8	9 (100)	6 (75-89)	0 (0)	8 (96-99)	2.0
Clc1ccc(C(OB(c2ccccc2)c2ccccc2)(c2cncnc2)c2ccccc2Cl)cc1 (centres unmarked) [Compound 2, (o-Chlorophenyl)(p-chlorophenyl)(5-pyrimidinyl)methyl diphenylborinate]	0 (0)	8 (96-99)	9 (100)	7 (90-99)	3 (30-44)		9 (100)	0 (0)	8 (96-99)	1.3	9 (100)	8 (96-99)	8 (96-99)	9 (100)	1.3
CC(C)(C)C(O)(CCc1ccc(Cl)cc1)Cn1cncn1 (centres unmarked) [Tebuconazole, reference compound]										6.1					
